This is an account of results in patent publication US20240109917A1 (ACTELION PHARMACEUTICALS LTD, priority 2020, published 2024).

Molecules are shown by their SMILES.

The target of this assay is His6-TEV-PDGFRβ (557-1016) (Homo sapiens (Human), UniProt P09619). The experiment in a line: PDGFRβ HTRF Assay. The format is biochemical. The following applies: read-out: PDGFR HTRF IC50. A digest of the protocol: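 HTRF KinEASE-TK readout (665/620 nm ratio) of TK-biotin substrate phosphorylation by His-tagged PDGFRβ kinase domain. Enzyme and inhibitor preincubated 30 min, then ATP/substrate added for 3 h at room temperature before 60 min EDTA quench/detection.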
His6-TEV-PDGFRβ (557-1016), sequence (P09619 557-1016): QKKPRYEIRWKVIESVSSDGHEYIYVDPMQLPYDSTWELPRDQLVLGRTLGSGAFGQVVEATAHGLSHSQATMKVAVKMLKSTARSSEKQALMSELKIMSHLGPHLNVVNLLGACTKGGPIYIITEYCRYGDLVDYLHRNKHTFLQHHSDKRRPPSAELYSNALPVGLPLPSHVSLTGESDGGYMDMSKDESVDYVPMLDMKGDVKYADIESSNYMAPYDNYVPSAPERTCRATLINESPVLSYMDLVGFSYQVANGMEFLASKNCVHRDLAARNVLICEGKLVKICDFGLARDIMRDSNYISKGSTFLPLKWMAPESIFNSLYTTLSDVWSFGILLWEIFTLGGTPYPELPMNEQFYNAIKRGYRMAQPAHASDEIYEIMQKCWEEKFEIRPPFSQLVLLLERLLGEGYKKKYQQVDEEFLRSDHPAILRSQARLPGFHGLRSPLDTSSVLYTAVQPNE
In general terms: In TR-FRET formats the signal depends on donor and acceptor labels being close together.

`Cc1ncc(C(=O)NCCN2CCCC2)cc1NC(=O)c1cnn2cc(-c3cnn(C)c3)sc12` [Example 219, 2-(1-Methyl-1H-pyrazol-4-yl)-N-(2-methyl-5-((2-(pyrrolidin-1-yl)ethyl)carbamoyl)pyridin-3-yl)pyrazolo[5,1-b]thiazole-7-carboxamide]: the IC50 was found to be 0.4 nM.

In the case of `Cc1ncc(C(=O)NCCN2CCCC2)cc1NC(=O)c1cnn2cc(-c3cnn(C)c3C)sc12` [Example 220, 2-(1,5-Dimethyl-1H-pyrazol-4-yl)-N-(2-methyl-5-((2-(pyrrolidin-1-yl)ethyl)carbamoyl)pyridin-3-yl)pyrazolo[5,1-b]thiazole-7-carboxamide], the IC50 was 0.2 nM.

On to `Cc1ncc(C(=O)NCCN2CCCC2(C)C)cc1NC(=O)c1cnn2cc(-c3cnn(CCC(O)CO)c3)sc12` (stereo not drawn) [Example 221, 2-(1-(3,4-Dihydroxybutyl)-1H-pyrazol-4-yl)-N-(5-((2-(2,2-dimethylpyrrolidin-1-yl)ethyl)carbamoyl)-2-methylpyridin-3-yl)pyrazolo[5,1-b]thiazole-7-carboxamide], for which the IC50 amounted to 0.9 nM.

Consider `Cc1ncc(C(=O)NCCN2CCCC2)cc1NC(=O)c1cnn2cc(-c3cnn(CCC(O)CO)c3)sc12` (stereo not drawn) [Example 222, 2-(1-(3,4-Dihydroxybutyl)-1H-pyrazol-4-yl)-N-(2-methyl-5-((2-(pyrrolidin-1-yl)ethyl)carbamoyl)pyridin-3-yl)pyrazolo[5,1-b]thiazole-7-carboxamide], for which the IC50 worked out at 0.7 nM.

Regarding `Cc1ncc(C(=O)NCCN2CCCC2)cc1NC(=O)c1cnn2cc(-c3c(C)nn(C)c3C)sc12` [Example 223, N-(2-methyl-5-((2-(pyrrolidin-1-yl)ethyl)carbamoyl)pyridin-3-yl)-2-(1,3,5-trimethyl-1H-pyrazol-4-yl)pyrazolo[5,1-b]thiazole-7-carboxamide], the IC50 amounted to 0.6 nM.

In the case of `Cc1ncc(C(=O)NCCN2CCCC2(C)C)cc1NC(=O)c1cnn2cc(-c3cn(C)nc3CO)sc12` [Example 224, N-(5-((2-(2,2-dimethylpyrrolidin-1-yl)ethyl)carbamoyl)-2-methylpyridin-3-yl)-2-(3-(hydroxymethyl)-1-methyl-1H-pyrazol-4-yl)pyrazolo[5,1-b]thiazole-7-carboxamide], the IC50 amounted to 1.4 nM.

With `Cc1ncc(C(=O)NCCN2CCCC2)cc1NC(=O)c1cnn2cc(-c3cnn(CC(O)CO)c3)sc12` (stereo not drawn) [Example 225, 2-(1-(2,3-Dihydroxypropyl)-1H-pyrazol-4-yl)-N-(2-methyl-5-((2-(pyrrolidin-1-yl)ethyl)carbamoyl)pyridin-3-yl)pyrazolo[5,1-b]thiazole-7-carboxamide], the IC50 was determined as 0.6 nM.

In the case of `COc1ncccc1-c1cn2ncc(C(=O)Nc3cc(C(=O)NCCN4CCCC4(C)C)cnc3C)c2s1` [Example 226, N-(5-((2-(2,2-Dimethylpyrrolidin-1-yl)ethyl)carbamoyl)-2-methylpyridin-3-yl)-2-(2-methoxypyridin-3-yl)pyrazolo[5,1-b]thiazole-7-carboxamide], the IC50 was determined as 0.2 nM.

For the compound `Cc1ncc(C(=O)NCCN2CCCC2)cc1NC(=O)c1cnn2cc(-c3cn(C)nc3C(F)(F)F)sc12` [Example 227, 2-(1-Methyl-3-(trifluoromethyl)-1H-pyrazol-4-yl)-N-(2-methyl-5-((2-(pyrrolidin-1-yl)ethyl)carbamoyl)pyridin-3-yl)pyrazolo[5,1-b]thiazole-7-carboxamide], the IC50 was determined as 0.9 nM.

As for `COc1ncccc1-c1cn2ncc(C(=O)Nc3cc(C(=O)NCCN4CCCC4C)cnc3C)c2s1` (stereo not drawn) [Example 228, 2-(2-Methoxypyridin-3-yl)-N-(2-methyl-5-((2-(2-methylpyrrolidin-1-yl)ethyl)carbamoyl)pyridin-3-yl)pyrazolo[5,1-b]thiazole-7-carboxamide], the IC50 worked out at 0.2 nM.

With `COc1ncccc1-c1cn2ncc(C(=O)Nc3cc(C(=O)NCCN4CCCC4)cnc3C)c2s1` [Example 229, 2-(2-Methoxypyridin-3-yl)-N-(2-methyl-5-((2-(pyrrolidin-1-yl)ethyl)carbamoyl)pyridin-3-yl)pyrazolo[5,1-b]thiazole-7-carboxamide], the IC50 was determined as 0.2 nM.

Regarding `Cc1ncc(C(=O)NCCN2CCCC2(C)C)cc1NC(=O)c1cnn2cc(-c3cncc(S(C)(=O)=O)c3)sc12` [Example 230, N-(5-((2-(2,2-dimethylpyrrolidin-1-yl)ethyl)carbamoyl)-2-methylpyridin-3-yl)-2-(5-(methylsulfonyl)pyridin-3-yl)pyrazolo[5,1-b]thiazole-7-carboxamide], the 50% inhibitory concentration (IC50) worked out at 3.2 nM.

As to `Cc1ncc(C(=O)NCCN2CCCC2(C)C)cc1NC(=O)c1cnn2cc(-c3c(C)n[nH]c3C)sc12` [Example 231, 2-(3,5-Dimethyl-1H-pyrazol-4-yl)-N-(5-((2-(2,2-dimethylpyrrolidin-1-yl)ethyl)carbamoyl)-2-methylpyridin-3-yl)pyrazolo[5,1-b]thiazole-7-carboxamide], the IC50 was 0.4 nM.

For `Cc1ncc(NC(=O)CN2CCN(C)CC2)cc1NC(=O)c1cnn2cc(-c3cnn(C)c3)sc12` [Example 232, 2-(1-methyl-1H-pyrazol-4-yl)-N-(2-methyl-5-(2-(4-methylpiperazin-1-yl)acetamido)pyridin-3-yl)pyrazolo[5,1-b]thiazole-7-carboxamide], the IC50 stood at 25.9 nM.

`COc1ncccc1-c1cn2ncc(C(=O)Nc3cc(NC(=O)CN4CCCC4(C)C)cnc3C)c2s1` [Example 233, N-(5-(2-(2,2-dimethylpyrrolidin-1-yl)acetamido)-2-methylpyridin-3-yl)-2-(2-methoxypyridin-3-yl)pyrazolo[5,1-b]thiazole-7-carboxamide]: the IC50 came to 0.2 nM.

Regarding `Cc1ncc(C(=O)NCCNCCO)cc1NC(=O)c1cnn2cc(-c3cnn(C)c3)sc12` [Example 234, N-(5-((2-((2-hydroxyethyl)amino)ethyl)carbamoyl)-2-methylpyridin-3-yl)-2-(1-methyl-1H-pyrazol-4-yl)pyrazolo[5,1-b]thiazole-7-carboxamide], the IC50 stood at 4.6 nM.

Turning to `Cc1ncc(C(=O)NCCN(CCO)CC2CCCCC2)cc1NC(=O)c1cnn2cc(-c3cnn(C)c3)sc12` [Example 235, N-(5-((2-((cyclohexylmethyl)(2-hydroxyethyl)amino)ethyl)carbamoyl)-2-methylpyridin-3-yl)-2-(1-methyl-1H-pyrazol-4-yl)pyrazolo[5,1-b]thiazole-7-carboxamide], the IC50 was 0.5 nM.

Turning to `Cc1ncc(C(=O)NC[C@H]2CCCN2CCO)cc1NC(=O)c1cnn2cc(-c3cnn(C)c3)sc12` [Example 236, (R)—N-(5-(((1-(2-hydroxyethyl)pyrrolidin-2-yl)methyl)carbamoyl)-2-methylpyridin-3-yl)-2-(1-methyl-1H-pyrazol-4-yl)pyrazolo[5,1-b]thiazole-7-carboxamide], the IC50 is 2.1 nM.

As for `Cc1ncc(C(=O)NC2CN(C(C)(C)C)C2)cc1NC(=O)c1cnn2cc(-c3cnn(C)c3)sc12` [Example 237, N-(5-((1-(tert-butyl)azetidin-3-yl)carbamoyl)-2-methylpyridin-3-yl)-2-(1-methyl-1H-pyrazol-4-yl)pyrazolo[5,1-b]thiazole-7-carboxamide], the IC50 was 1.4 nM.

`Cc1ncc(C(=O)NC2CN(C(C)(C)C)C2)cc1NC(=O)c1cnn2cc(-c3cccc4c3cnn4C)sc12` [Example 238, N-(5-((1-(tert-butyl)azetidin-3-yl)carbamoyl)-2-methylpyridin-3-yl)-2-(1-methyl-1H-indazol-4-yl)pyrazolo[5,1-b]thiazole-7-carboxamide]: the IC50 was 0.4 nM.

On to `Cc1ncc(C(=O)N2CC2CNC(C)(C)C)cc1NC(=O)c1cnn2cc(-c3cccc4c3cnn4C)sc12` (stereo not drawn) [Example 239, N-(5-(2-((tert-butylamino)methyl)aziridine-1-carbonyl)-2-methylpyridin-3-yl)-2-(1-methyl-1H-indazol-4-yl)pyrazolo[5,1-b]thiazole-7-carboxamide], for which the IC50 was 5 nM.

On to `Cc1ncc(C(=O)NCCN2CCCC2(C)C)cc1NC(=O)c1cnn2cc(-c3cccc4c3cnn4C)sc12` [Example 240, N-(5-((2-(2,2-dimethylpyrrolidin-1-yl)ethyl)carbamoyl)-2-methylpyridin-3-yl)-2-(1-methyl-1H-indazol-4-yl)pyrazolo[5,1-b]thiazole-7-carboxamide], for which the IC50 was found to be 0.3 nM.

`Cc1ncc(NC(=O)CCN2CCCC2(C)C)cc1NC(=O)c1cnn2cc(-c3cccc4c3cnn4C)sc12` [Example 241, N-(5-(3-(2,2-dimethylpyrrolidin-1-yl)propanamido)-2-methylpyridin-3-yl)-2-(1-methyl-1H-indazol-4-yl)pyrazolo[5,1-b]thiazole-7-carboxamide]: the IC50 came to 0.1 nM.

On to `COc1ncccc1-c1cn2ncc(C(=O)Nc3cc(C(=O)NCCN4CCC[C@H]4C)cnc3C)c2s1` [Example 242, (R)-2-(2-methoxypyridin-3-yl)-N-(2-methyl-5-((2-(2-methylpyrrolidin-1-yl)ethyl)carbamoyl)pyridin-3-yl)pyrazolo[5,1-b]thiazole-7-carboxamide], for which the IC50 was 0.2 nM.

Turning to `Cc1ncc(NC(=O)OC[C@@H]2CCCN2C)cc1NC(=O)c1cnn2cc(-c3cnn(C)c3)sc12` [Example 243, (S)-(1-methylpyrrolidin-2-yl)methyl (6-methyl-5-(2-(1-methyl-1H-pyrazol-4-yl)pyrazolo[5,1-b]thiazole-7-carboxamido)pyridin-3-yl)carbamate], the IC50 came out at 0.5 nM.

`Cc1ncc(NC(=O)OC[C@H]2CCCN2C)cc1NC(=O)c1cnn2cc(-c3cnn(C)c3)sc12` [Example 244, (R)-(1-methylpyrrolidin-2-yl)methyl (6-methyl-5-(2-(1-methyl-1H-pyrazol-4-yl)pyrazolo[5,1-b]thiazole-7-carboxamido)pyridin-3-yl)carbamate]: the IC50 was 0.5 nM.

Consider `Cc1ncc(NC(=O)OC[C@@H]2CCCN2C(C)C)cc1NC(=O)c1cnn2cc(-c3cnn(C)c3)sc12` [Example 245, (S)-(1-isopropylpyrrolidin-2-yl)methyl (6-methyl-5-(2-(1-methyl-1H-pyrazol-4-yl)pyrazolo[5,1-b]thiazole-7-carboxamido)pyridin-3-yl)carbamate], for which the IC50 is 0.4 nM.

In general, IC50 refers to the concentration that inhibits the measured activity by half.
